Source: PubChem BioAssay AID1259407 (Chemical Carcinogenesis Research Information System (CCRIS), 2018)
The source made the active and inactive calls. How the calls were made is not given here.

System: CCRIS mutagenicity, Ames/micronucleus/aberration tests
Test: CCRIS mutagenicity studies
[1] = Test System: AMES SALMONELLA TYPHIMURIUM, Strain/Indicator: TA98, Metabolic Activation: RAT, LIVER, S-9, AROCLOR 1254, Method: STANDARD PLATE
[2] = Test System: AMES SALMONELLA TYPHIMURIUM, Strain/Indicator: TA100, Metabolic Activation: NONE, Method: PREINCUBATION
[3] = Test System: AMES SALMONELLA TYPHIMURIUM, Strain/Indicator: TA100, Metabolic Activation: RAT, LIVER, S-9, AROCLOR 1254, Method: STANDARD PLATE
[4] = Test System: E. COLI, Strain/Indicator: WP2 UVRA, Metabolic Activation: NONE, Method: STANDARD PLATE
[5] = Test System: E. COLI, Strain/Indicator: WP2 UVRA, Metabolic Activation: RAT, LIVER, S-9, Method: STANDARD PLATE
[6] = Test System: AMES SALMONELLA TYPHIMURIUM, Strain/Indicator: TA98, Metabolic Activation: NONE, Method: STANDARD PLATE
[7] = Test System: AMES SALMONELLA TYPHIMURIUM, Strain/Indicator: TA100, Metabolic Activation: NONE, Method: STANDARD PLATE

With `O=C(O)c1ccc(NC2OCC(O)C(O)C2O)cc1` (configuration not stated) the mutagenic call (Test System: AMES SALMONELLA TYPHIMURIUM, Strain/Indicator: TA100, Metabolic Activation: NONE, Method: LIQUID INCUBATION) was “inactive; negative”.

`Cc1ccc2nc3c(ccc4ccccc43)c(C)c2c1` was tested, and the mutagenic call (Test System: AMES SALMONELLA TYPHIMURIUM, Strain/Indicator: TA97A, Metabolic Activation: NONE, Method: PREINCUBATION) was “inactive; negative”, the mutagenic call (Test System: AMES SALMONELLA TYPHIMURIUM, Strain/Indicator: TA98, Metabolic Activation: NONE, Method: PREINCUBATION) was “inactive; negative” and the mutagenic call [1] was “active; positive”. The mutagenic call [2] was “inactive; negative”, the mutagenic call [3] was “active; positive” and the mutagenic call (Test System: AMES SALMONELLA TYPHIMURIUM, Strain/Indicator: TA102, Metabolic Activation: NONE, Method: PREINCUBATION) was “active; positive”. The mutagenic call (Test System: E. COLI, Strain/Indicator: WP2 UVRA, Metabolic Activation: HAMSTER, LIVER, S-9, AROCLOR 1254, Method: STANDARD PLATE) was “inactive; negative”, the mutagenic call (Test System: E. COLI, Strain/Indicator: WP2 UVRA, Metabolic Activation: HAMSTER, LIVER, S-9, Method: STANDARD PLATE) was “inactive; negative” and the mutagenic call (Test System: E. COLI, Strain/Indicator: WP2 UVRA, Metabolic Activation: MOUSE, LIVER, S-9, AROCLOR 1254, Method: STANDARD PLATE) was “inactive; negative”. The mutagenic call (Test System: E. COLI, Strain/Indicator: WP2 UVRA, Metabolic Activation: MOUSE, LIVER, S-9, Method: STANDARD PLATE) was “inactive; negative”, the mutagenic call [4] was “inactive; negative” and the mutagenic call (Test System: E. COLI, Strain/Indicator: WP2 UVRA, Metabolic Activation: RAT, LIVER, S-9, AROCLOR 1254, Method: STANDARD PLATE) was “inactive; negative”. For the same compound, the mutagenic call [5] was “inactive; negative”.

For `COC(=O)CN(CC(=O)OC)C1C[C@H]1N(CC(=O)OC)CC(=O)OC` (some centres not stated), the mutagenic call (Test System: CHINESE HAMSTER V-79, Strain/Indicator: V-79/OUABAIN, Metabolic Activation: NONE, Method: STANDARD PLATE) was “active; positive”.

For `Cc1cc2c3c(ccc2c2ccccc12)[C@@H](O)[C@H](O)[C@@H]1O[C@H]31`, the mutagenic call [2] was “inactive; negative”.

`CCN(C)C(=O)Oc1ccc2c(c1)C1(C)CCN(C)C1N2C` (configuration not stated) was tested, and the mutagenic call (Test System: AMES SALMONELLA TYPHIMURIUM, Strain/Indicator: TA97, Metabolic Activation: NONE, Method: STANDARD PLATE) was “inactive; negative”, the mutagenic call (Test System: AMES SALMONELLA TYPHIMURIUM, Strain/Indicator: TA97, Metabolic Activation: S-9, Method: STANDARD PLATE) was “inactive; negative” and the mutagenic call [6] was “inactive; negative”. For the same compound, the mutagenic call (Test System: AMES SALMONELLA TYPHIMURIUM, Strain/Indicator: TA98, Metabolic Activation: S-9, Method: STANDARD PLATE) was “inactive; negative”, the mutagenic call [7] was “inactive; negative” and the mutagenic call (Test System: AMES SALMONELLA TYPHIMURIUM, Strain/Indicator: TA100, Metabolic Activation: S-9, Method: STANDARD PLATE) was “inactive; negative”. For the same compound, the mutagenic call (Test System: AMES SALMONELLA TYPHIMURIUM, Strain/Indicator: TA104, Metabolic Activation: NONE, Method: STANDARD PLATE) was “inactive; negative”, the mutagenic call (Test System: AMES SALMONELLA TYPHIMURIUM, Strain/Indicator: TA104, Metabolic Activation: S-9, Method: STANDARD PLATE) was “inactive; negative” and the mutagenic call (Test System: AMES SALMONELLA TYPHIMURIUM, Strain/Indicator: TA1535, Metabolic Activation: NONE, Method: STANDARD PLATE) was “inactive; negative”. For the same compound, the mutagenic call (Test System: AMES SALMONELLA TYPHIMURIUM, Strain/Indicator: TA1535, Metabolic Activation: S-9, Method: STANDARD PLATE) was “inactive; negative”, the mutagenic call (Test System: AMES SALMONELLA TYPHIMURIUM, Strain/Indicator: TA1537, Metabolic Activation: NONE, Method: STANDARD PLATE) was “inactive; negative” and the mutagenic call (Test System: AMES SALMONELLA TYPHIMURIUM, Strain/Indicator: TA1537, Metabolic Activation: S-9, Method: STANDARD PLATE) was “inactive; negative”. The mutagenic call (Test System: AMES SALMONELLA TYPHIMURIUM, Strain/Indicator: TA1538, Metabolic Activation: NONE, Method: STANDARD PLATE) was “inactive; negative” and the mutagenic call (Test System: AMES SALMONELLA TYPHIMURIUM, Strain/Indicator: TA1538, Metabolic Activation: S-9, Method: STANDARD PLATE) was “inactive; negative”.

With `CC(O)CC(C)(C)O` (configuration not stated) the mutagenic call (Test System: Ames Salmonella typhimurium, Strain/Indicator: TA98, Metabolic Activation: None, Method: Preincubation) was “inactive; negative”, the mutagenic call (Test System: Ames Salmonella typhimurium, Strain/Indicator: TA98, Metabolic Activation: Rat, Liver, S9, Sodium phenobarbital and 5,6-benzoflavone (10%), Method: Preincubation) was “inactive; negative” and the mutagenic call (Test System: Ames Salmonella typhimurium, Strain/Indicator: TA100, Metabolic Activation: None, Method: Preincubation) was “inactive; negative”. The mutagenic call (Test System: Ames Salmonella typhimurium, Strain/Indicator: TA100, Metabolic Activation: Rat, Liver, S9, Sodium phenobarbital and 5,6-benzoflavone (10%), Method: Preincubation) was “inactive; negative”, the mutagenic call (Test System: Ames Salmonella typhimurium, Strain/Indicator: TA1535, Metabolic Activation: None, Method: Preincubation) was “inactive; negative” and the mutagenic call (Test System: Ames Salmonella typhimurium, Strain/Indicator: TA1535, Metabolic Activation: Rat, Liver, S9, Sodium phenobarbital and 5,6-benzoflavone (10%), Method: Preincubation) was “inactive; negative”. The mutagenic call (Test System: Ames Salmonella typhimurium, Strain/Indicator: TA1537, Metabolic Activation: None, Method: Preincubation) was “inactive; negative”, the mutagenic call (Test System: Ames Salmonella typhimurium, Strain/Indicator: TA1537, Metabolic Activation: Rat, Liver, S9, Sodium phenobarbital and 5,6-benzoflavone (10%), Method: Preincubation) was “inactive; negative” and the mutagenic call (Test System: E. coli, Strain/Indicator: WP2uvrA/pKM101, Metabolic Activation: None, Method: Preincubation) was “inactive; negative”. For the same compound, the mutagenic call (Test System: E. coli, Strain/Indicator: WP2uvrA/pKM101, Metabolic Activation: Rat, Liver, S9, Sodium Phenobarbital and 5,6-benzoflavone (10%), Method: Preincubation) was “inactive; negative”.

In the case of `CN(C)c1nc2c3cccnc3ccc2n1C`, the mutagenic call (Test System: AMES SALMONELLA TYPHIMURIUM, Strain/Indicator: TA98, Metabolic Activation: RAT, LIVER, S-9, AROCLOR 1254, Method: PREINCUBATION) is reported as “active; positive” and the mutagenic call (Test System: AMES SALMONELLA TYPHIMURIUM, Strain/Indicator: TA100, Metabolic Activation: RAT, LIVER, S-9, AROCLOR 1254, Method: PREINCUBATION) is reported as “active; positive”.

With `O=[N+]([O-])c1ccc2c3c(cccc13)CC2` the mutagenic call [6] was “active; positive”, the mutagenic call [1] was “active; positive” and the mutagenic call (Test System: AMES SALMONELLA TYPHIMURIUM, Strain/Indicator: TA98, Metabolic Activation: RAT, LIVER, S-9, KC500 OR PHENOBARBITAL, Method: LIQUID SUSPENSION) was “active; positive”. The mutagenic call [7] was “active; positive”, the mutagenic call [3] was “active; positive” and the mutagenic call (Test System: AMES SALMONELLA TYPHIMURIUM, Strain/Indicator: TA100, Metabolic Activation: RAT, LIVER, S-9, KC500 OR PHENOBARBITAL, Method: LIQUID SUSPENSION) was “active; positive”. For the same compound, the mutagenic call [4] was “inactive; negative” and the mutagenic call [5] was “inactive; negative”.

`Cc1ccc2nc3c(ccc4ccccc43)c(CO)c2c1` was tested, and the mutagenic call [3] was “active; positive”.

With `CC1(C)CCCC(C)(C)N1[O]` the mutagenic call [6] was “inactive; negative”, the mutagenic call [7] was “inactive; negative” and the mutagenic call (Test System: AMES SALMONELLA TYPHIMURIUM, Strain/Indicator: TA102, Metabolic Activation: NONE, Method: STANDARD PLATE) was “inactive; negative”.

`CNC(=O)NOC(=O)N(C)C(=O)NC` was tested, and the mutagenic call [6] was “inactive; negative”, the mutagenic call (Test System: AMES SALMONELLA TYPHIMURIUM, Strain/Indicator: TA98, Metabolic Activation: RAT, LIVER, S-9, Method: STANDARD PLATE) was “inactive; negative” and the mutagenic call [7] was “inactive; negative”.

`Cc1ccc2c(ccc3c4ccccc4ccc23)c1` was tested, and the mutagenic call (Test System: AMES SALMONELLA TYPHIMURIUM, Strain/Indicator: TA98, Metabolic Activation: RAT, LIVER, CYTOSOL, AROCLOR 1254, Method: STANDARD PLATE) was “inactive; negative”, the mutagenic call (Test System: AMES SALMONELLA TYPHIMURIUM, Strain/Indicator: TA98, Metabolic Activation: RAT, LIVER, MICROSOMES, AROCLOR 1254, Method: STANDARD PLATE) was “inactive; negative” and the mutagenic call (Test System: AMES SALMONELLA TYPHIMURIUM, Strain/Indicator: TA100, Metabolic Activation: RAT, LIVER, MICROSOMES, 2-METHYLCHRYSENE, Method: STANDARD PLATE) was “inactive; negative”. The mutagenic call (Test System: AMES SALMONELLA TYPHIMURIUM, Strain/Indicator: TA100, Metabolic Activation: RAT, LIVER, MICROSOMES, AROCLOR 1254, Method: STANDARD PLATE) was “active; positive” and the mutagenic call (Test System: AMES SALMONELLA TYPHIMURIUM, Strain/Indicator: TA100, Metabolic Activation: RAT, LIVER, MICROSOMES, Method: STANDARD PLATE) was “inactive; negative”.
